Assay results reported in patent publication US20090017105A1, “PROLIPOSOMAL AND LIPOSOMAL COMPOSITIONS OF POORLY WATER SOLUBLE DRUGS” (priority 2007, published 2009).
Structures can show the parent of a compound that is named as a salt. Where two headings read alike, the source gives them in different places.

Columns and labels:
[1] = cited from earlier work; for entrapment in the liposomes: Mayhew et al., U.S. Pat. No. 5,939,567 and 6,118,011
[2] = Ogawa et al., U.S. Pat. No. 5,094,854, cited from earlier work
[3] = Durr et al., U.S. Pat. No. 5,670,536; cited from earlier work
[4] = test system: MDA MB 453; assay: In vitro cytotoxicity, 72 hour MIT assay; assay type: cell-based; details: Homo sapiens; Breast, MDA MB 453, 72 hour
Description: (§1) The cytotoxicity of the Liposomal composition of Docetaxel (hereinafter referred to as “LD”) in vitro in a panel of human cancer cell lines, expected to be sensitive to Docetaxel and the effects were compared with the conventional, approved, marketed composition of Docetaxel, viz. Taxotere® (hereinafter referred to as “CD”). A solution of bulk Docetaxel in DMSO was taken as a positive control for the studies.

[5] = test system: SKOV3; assay: In vitro cytotoxicity, 72 hour MIT assay; assay type: cell-based; details: Homo sapiens, SK-OV-3; Ovary, SKOV3, 72 hour
Description: as §1

[6] = test system: DU145; assay: In vitro cytotoxicity, 72 hour MIT assay; assay type: cell-based; details: Homo sapiens, DU-145; Prostrate, DU145, 72 hour
Description: as §1

[7] = test system: PAI; assay: In vitro cytotoxicity, 72 hour MIT assay; assay type: cell-based; details: Homo sapiens, Ovary
Description: as §1

[8] = cited from earlier work
[9] = liposome system of Hager et al.

For `CCCCCC(=O)OC(C(=O)OC1CC2(O)C(OC(=O)c3ccccc3)C3C4(OC(C)=O)COC4CC(O)C3(C)C(=O)C(OC(C)=O)C(=C1C)C2(C)C)C(NC(=O)c1ccccc1)c1ccccc1` (stereo not shown) [2′-caproyl Paclitaxel], the “entrapment in the liposomes” value [1] is given as “about 70%”.
For `CCCCCC(=O)OC1CC2OCC2(OC(C)=O)C2C(OC(=O)c3ccccc3)C3(O)CC(OC(=O)C(O)C(NC(=O)c4ccccc4)c4ccccc4)C(C)=C(C(OC(C)=O)C(=O)C12C)C3(C)C` (stereo not shown) [7-caproyl Paclitaxel], the “entrapment in the liposomes” value [1] is given as “about 90%”.
In the case of `N.N.[Cl][Pt][Cl]` [Cisplatin], the “rate of release of the drug” value ([2]; 39° C.) is given as “hardly anything” and the “rate of release of the drug” value ([2]; 42° C.) is given as 30 to 95%.
For `CC(=O)O[C@@]12CO[C@@H]1C[C@H](O)[C@@]1(C)C(=O)[C@H](O)C3=C(C)[C@@H](OC(=O)[C@H](O)[C@@H](NC(=O)OC(C)(C)C)c4ccccc4)C[C@@](O)([C@@H](OC(=O)c4ccccc4)[C@H]21)C3(C)C` [Docetaxel Solution in DMSO, Docetaxel], the particle diameter [3] is given as 47 to 71 nm, the IC50 [4] is given as 15.1 ± 2.3 nM and the IC50 [5] is given as 9.87 ± 2.74 nM. For the same compound, the IC50 [6] was 5.13 ± 1.28 nM, the IC50 [7] was under 0.01 nM and the “period for which liposomal compositions remain clear” value ([8]; Durr et al., U.S. Pat. No. 5,670,536, 20° C.) was “more than eight weeks”.
For `COc1cccc2c1C(=O)c1c(O)c3c(c(O)c1C2=O)C[C@@](O)(C(=O)CO)C[C@@H]3O[C@H]1C[C@H](N)[C@H](O)[C@H](C)O1` [Doxorubicin hydrochloride], the encapsulation ([1]; liposome system of Hager et al., U.S. Pat. No. 5,556,637 and 5,741,517) is given as 78%.
For `COc1cccc2c1C(=O)c1c(O)c3c(c(O)c1C2=O)C[C@@](O)(C(=O)CO)C[C@@H]3O[C@H]1C[C@H](N)[C@H](O)[C@H](C)O1` [Doxorubicin], the drop in potency ([8]; lyophilized liposomal composition of Huang et al., WO 92/02208, in two weeks) is given as 10-15%, the “drug entrapment in the liposomes” value ([1]; liposomes of Barenholz et al., U.S. Pat. No. 4,797,285 and 4,898,735) is given as 85-90% and the “entrapment of the drug” value ([1]; thermosensitive liposomes of Needham et al., U.S. Pat. No. 6,200,598 and 6,726,925 B1) is given as “not more than 80%”.
For Quinoline yellow, the liposome-bound active principle [1, 9] is listed as 1.38 mg/mL and the non-liposomal-bound active principle [1, 9] is listed as “about 3.2 mg/ml”.
